According to patent publication EP0280051A1, “ACV synthetase” (QUEEN'S UNIVERSITY AT KINGSTON, priority 1987, dated 1988):

Target: ACV-synthetase of C. acremonium C-10 (Hapsidospora chrysogena, UniProt P25464)
Assay: Cell-free ACV synthetase reaction (desalted extract, HPLC analysis after monobromobimane derivatization)
Type: biochemical
Details: for inhibition of ACV-synthetase: qualitative, concentration not clearly stated for the inhibitors
Experimental: a Typical reaction mixtures contained desalted extract (about 0.5 mg protein), 20 µg cycloheximide, 10 mM ATP, 10 mM MgC12, 5 mM dithiothreitol, 5 mM L-α-aminoadipic acid, I mM L -cysteine and 5 mM L -valine, all components dissolved in 100 µl of 100 mM MOPS/KOH at pH 7.5. Reactions were performed at 25°C in a water bath shaker, and terminated by addition of 25 µl of 20% trichloroacetic acid. Precipitated protein was removed by centrifugation, and the supernatant stored at -20°C prior to analysis. (MOPS = 3-[N-Morpholino] propanesulfonic acid, - a biological buffer available from Sigma Chemical Co.
Mycelia from Example 1 were washed twice with cold 50 mM Tris/HC1 buffer (pH 7.2) containing 100 mM KC1. After centrifugation, the pellet was resuspended in a volume of cold 100 mM MOPS/KOH buffer (pH 7.2) equal to twice the pellet volume; the buffer also contained 50 mM KCI, 30 mM 2-mercaptoethanol, 20 mM EDTA and 50% glycerol (v/v). The cells were disrupted in a French Press (Aminco) at 8000 psi and the debris removed by centrifugation (30,000×g, 15 min). The clear yellow supernatant fluid was stored at -20°C or immediately desalted by passage through a Sephadex G-15 column using an elution buffer of 100 mM MOPSiKOH (pH 7.2) containing 50 mM KCI and 20% glycerol (v/v). The resulting solution contained 10 to 20 mg protein per ml and was either used immediately for the cell-free reaction or frozen for future use.
Stored frozen extract (from Example 2) was thawed, desalted over Sephadex eG-15, and eluted with 100 mM MOPS/KOH at pH 7.5. Typical reaction mixtures contained desalted extract (about 0.5 mg protein), 20 µg cycloheximide, 10 mM ATP, 10 mM MgCI2, 5 mM dithiothreitol, 5 mM L-α-aminoadipic acid, 1 mM L -cysteine and 5 mM L-valine, all components dissolved in 100 µl of 100 mM MOPS/KOH at pH 7.5. Reactions were performed at 25°C in a water bath shaker, and terminated by addition of 25 µl of 20% trichloroacetic acid. Precipitated protein was removed by centrifugation, and the supernatant stored at -20°C prior to analysis.
Analyses were performed following derivatization with monobromobimane: to a 20 I sample were added successively 2 µl of 3M KOH, 4 µl of 0.03M dithiothreitol in 2M NH4HCO3 (pH 8.2), and 4 µl of 0.3M monobromobimane in acetonitrile. This mixture was stored for 15 min. in the dark, and then extracted with methylene chloride (4 × 200 I). Five µl of 1 M citric acid (pH 2.2) was added, and 25 µl of this final solution was injected into the HPLC apparatus.
The HPLC analysis employed two solutions, viz., A, 880 mg for pentanesulfonic acid, 2.5 ml of acetic acid in I liter H20 (pH 3.6); B, 880 mg of pentanesulfonic acid, 2.5 ml acetic acid, 50 ml water and 950 ml acetonitrile. […]

ACV-synthetase of C. acremonium C-10, sequence (P25464 whole entry): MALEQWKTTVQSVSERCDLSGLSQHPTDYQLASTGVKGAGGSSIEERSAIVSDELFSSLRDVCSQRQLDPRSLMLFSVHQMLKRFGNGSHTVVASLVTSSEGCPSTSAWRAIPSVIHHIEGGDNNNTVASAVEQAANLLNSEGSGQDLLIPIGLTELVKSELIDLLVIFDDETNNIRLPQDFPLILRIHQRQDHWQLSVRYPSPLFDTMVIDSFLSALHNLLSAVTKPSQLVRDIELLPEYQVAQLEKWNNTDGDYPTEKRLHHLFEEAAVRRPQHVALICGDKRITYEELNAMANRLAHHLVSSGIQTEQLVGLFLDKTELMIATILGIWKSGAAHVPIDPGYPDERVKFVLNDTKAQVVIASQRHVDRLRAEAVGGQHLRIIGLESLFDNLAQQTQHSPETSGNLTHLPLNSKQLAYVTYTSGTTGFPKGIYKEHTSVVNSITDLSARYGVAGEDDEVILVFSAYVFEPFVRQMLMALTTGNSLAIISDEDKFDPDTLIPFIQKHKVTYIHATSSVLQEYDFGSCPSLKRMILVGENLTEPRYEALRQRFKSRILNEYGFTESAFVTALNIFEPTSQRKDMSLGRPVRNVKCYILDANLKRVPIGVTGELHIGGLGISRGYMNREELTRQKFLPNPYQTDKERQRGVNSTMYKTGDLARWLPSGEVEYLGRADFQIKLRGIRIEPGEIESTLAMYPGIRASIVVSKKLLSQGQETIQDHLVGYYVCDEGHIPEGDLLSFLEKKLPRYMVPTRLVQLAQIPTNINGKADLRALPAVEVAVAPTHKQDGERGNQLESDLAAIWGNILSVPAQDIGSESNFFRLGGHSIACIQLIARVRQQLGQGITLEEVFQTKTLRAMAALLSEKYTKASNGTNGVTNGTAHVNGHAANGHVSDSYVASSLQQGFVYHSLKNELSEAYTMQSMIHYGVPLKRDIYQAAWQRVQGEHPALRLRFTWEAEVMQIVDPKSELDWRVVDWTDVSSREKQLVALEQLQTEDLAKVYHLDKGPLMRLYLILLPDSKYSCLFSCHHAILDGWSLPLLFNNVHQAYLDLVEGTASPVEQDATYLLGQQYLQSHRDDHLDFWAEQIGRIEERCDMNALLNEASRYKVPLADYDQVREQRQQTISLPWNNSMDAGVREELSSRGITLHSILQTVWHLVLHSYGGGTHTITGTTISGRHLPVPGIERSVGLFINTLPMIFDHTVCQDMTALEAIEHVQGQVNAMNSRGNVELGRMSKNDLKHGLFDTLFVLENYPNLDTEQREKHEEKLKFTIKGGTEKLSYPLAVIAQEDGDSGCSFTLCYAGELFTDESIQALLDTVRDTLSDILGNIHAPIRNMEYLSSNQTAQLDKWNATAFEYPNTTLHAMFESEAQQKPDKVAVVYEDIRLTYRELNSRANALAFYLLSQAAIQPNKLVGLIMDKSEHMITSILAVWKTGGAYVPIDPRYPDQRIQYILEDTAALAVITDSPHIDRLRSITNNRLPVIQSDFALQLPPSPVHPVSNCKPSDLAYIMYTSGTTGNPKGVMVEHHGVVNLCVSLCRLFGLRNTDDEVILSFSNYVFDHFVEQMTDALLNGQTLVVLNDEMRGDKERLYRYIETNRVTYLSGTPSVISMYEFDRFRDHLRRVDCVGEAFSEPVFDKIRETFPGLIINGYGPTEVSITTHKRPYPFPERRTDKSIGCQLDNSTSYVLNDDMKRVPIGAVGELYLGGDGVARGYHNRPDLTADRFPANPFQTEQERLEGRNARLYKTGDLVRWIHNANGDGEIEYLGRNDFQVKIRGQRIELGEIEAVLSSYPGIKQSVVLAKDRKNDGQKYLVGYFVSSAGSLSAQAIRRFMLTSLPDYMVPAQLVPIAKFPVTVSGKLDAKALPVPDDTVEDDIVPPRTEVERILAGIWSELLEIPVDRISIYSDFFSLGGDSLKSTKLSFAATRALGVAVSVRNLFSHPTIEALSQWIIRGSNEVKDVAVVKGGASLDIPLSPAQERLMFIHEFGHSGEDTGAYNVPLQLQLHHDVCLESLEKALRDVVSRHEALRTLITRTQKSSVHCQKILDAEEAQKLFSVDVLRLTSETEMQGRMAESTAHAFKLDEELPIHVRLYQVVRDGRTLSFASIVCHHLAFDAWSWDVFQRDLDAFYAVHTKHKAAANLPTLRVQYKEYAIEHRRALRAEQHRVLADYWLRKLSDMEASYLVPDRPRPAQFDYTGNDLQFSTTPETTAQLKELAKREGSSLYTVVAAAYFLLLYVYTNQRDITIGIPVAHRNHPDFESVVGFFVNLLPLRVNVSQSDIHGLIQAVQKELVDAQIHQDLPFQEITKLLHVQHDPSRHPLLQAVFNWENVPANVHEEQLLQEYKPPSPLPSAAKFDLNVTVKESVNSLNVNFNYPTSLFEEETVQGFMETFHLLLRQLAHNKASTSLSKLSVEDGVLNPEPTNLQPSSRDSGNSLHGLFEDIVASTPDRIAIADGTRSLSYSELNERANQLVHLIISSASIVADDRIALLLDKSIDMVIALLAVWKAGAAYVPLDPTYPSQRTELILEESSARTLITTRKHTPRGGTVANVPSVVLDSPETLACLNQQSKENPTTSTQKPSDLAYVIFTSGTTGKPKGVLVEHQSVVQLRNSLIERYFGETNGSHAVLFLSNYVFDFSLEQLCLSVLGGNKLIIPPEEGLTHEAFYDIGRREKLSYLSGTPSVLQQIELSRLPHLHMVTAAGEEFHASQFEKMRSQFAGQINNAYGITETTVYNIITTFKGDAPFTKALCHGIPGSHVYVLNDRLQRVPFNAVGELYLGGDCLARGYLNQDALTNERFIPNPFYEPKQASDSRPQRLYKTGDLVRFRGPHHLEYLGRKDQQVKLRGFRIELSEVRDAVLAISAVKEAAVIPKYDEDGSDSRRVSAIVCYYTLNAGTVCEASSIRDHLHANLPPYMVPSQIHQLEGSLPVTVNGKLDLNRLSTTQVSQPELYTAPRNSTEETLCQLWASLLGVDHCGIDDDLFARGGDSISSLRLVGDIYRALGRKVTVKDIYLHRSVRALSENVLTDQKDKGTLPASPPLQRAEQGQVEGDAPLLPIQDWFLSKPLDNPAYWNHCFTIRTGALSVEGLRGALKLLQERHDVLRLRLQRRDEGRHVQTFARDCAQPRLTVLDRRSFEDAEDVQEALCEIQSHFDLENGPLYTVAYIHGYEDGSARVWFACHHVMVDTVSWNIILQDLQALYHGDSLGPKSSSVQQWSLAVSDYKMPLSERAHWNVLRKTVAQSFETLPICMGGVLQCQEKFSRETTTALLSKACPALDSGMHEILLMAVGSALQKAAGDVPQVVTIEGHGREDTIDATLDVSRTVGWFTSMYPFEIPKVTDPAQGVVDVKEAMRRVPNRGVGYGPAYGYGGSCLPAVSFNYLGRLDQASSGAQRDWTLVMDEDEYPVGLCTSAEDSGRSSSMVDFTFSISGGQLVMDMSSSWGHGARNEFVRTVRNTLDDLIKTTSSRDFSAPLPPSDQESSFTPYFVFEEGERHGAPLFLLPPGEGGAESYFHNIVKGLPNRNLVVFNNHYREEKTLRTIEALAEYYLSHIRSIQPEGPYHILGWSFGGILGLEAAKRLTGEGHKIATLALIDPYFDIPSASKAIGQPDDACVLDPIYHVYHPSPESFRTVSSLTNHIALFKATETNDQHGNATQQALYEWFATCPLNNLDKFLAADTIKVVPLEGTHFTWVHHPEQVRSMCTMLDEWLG

NCC(=O)O [glycine]
effect on LLD-ACV synthesis (added as a fourth amino acid, concentration not given): unaffected

Fructose-1.6-diphosphate
inhibition of ACV-synthetase: inhibit

glucose-1-phosphate
inhibition of ACV-synthetase: inhibit

orthophosphate
inhibition of ACV-synthetase: inhibit
